Where a SMILES comes first, the peptide text is derived from it. [ ]: non-standard residue; d: D form. The star is where a group is joined. NHCH2CH2OH = OCCN*; For = O=C*

Data set [1] relates to Streptococcus pyogenes SSI-9. Nature of the data set: Antibacterial activity assay of bead-derived peptides (three concentrations). Details: key: +++: inhibition by the 640-fold diluted peptide solution; ++: inhibition by the 160-fold diluted solution; +: inhibition by the 40-fold diluted solution; -: no inhibition. The data set is classed as cell-based. The following applies: S. pyogenes, bead-derived peptide solution, three concentrations. In short, it runs like this:
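Bead-derived library peptide stocks in DMSO were tested undiluted and after 4- and 16-fold DMSO dilution against S. pyogenes SSI-9 (2 × 10^5 CFU/well) in cation-adjusted Mueller Hinton Broth with 5% laked horse blood. After 18 h at 37 °C, wells were scored for precipitation of grown cells.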

A short description of data set [2]: H+/Na+ transport assay of bead-derived peptides (one-point).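 Note: relative to parent gramicidin A activity set to 1.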 The data set is classed as biochemical. Also on record: key: relative activity; mean of two control wells = 1.00. The following applies: bead-derived peptide solution, EYPC/EYPG LUVs. In short, it runs like this:
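Miniaturized 96-well format. LUVs with entrapped pyranine (1.0 mM) were exposed to peptide for 30 min at RT. Intensities were expressed relative to full lysis by Triton X-100 and no treatment, with control-well mean = 1.00.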

The test system of data set [3] is P388 mouse leukemia cells. The following applies: 92 h. In short, it runs like this:
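First, library peptide stocks are diluted 250-fold in RPMI1640 with 10% heat-inactivated FBS. Next, they are mixed with P388 cells to give 1 × 10^4 cells/mL and incubated 92 h at 37 °C, 5% CO2. Finally, viability (%) is scored by WST-1 absorbance at 415 nm.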

On to `CNC(=O)C[C@@H](NC(=O)[C@@H](NC(=O)[C@@H](CC(C)C)NC(=O)[C@H](C)NC(=O)[C@@H](CC(C)C)NC(=O)[C@H](C)NC(=O)CNC(=O)[C@@H](NC=O)C(C)C)C(C)C)C(=O)N[C@@H](Cc1c[nH]c2ccccc12)C(=O)N[C@H](CC(C)C)C(=O)N[C@@H](Cc1c[nH]c2ccccc12)C(=O)N[C@H](CC(C)C)C(=O)N[C@@H](Cc1c[nH]c2ccccc12)C(=O)N[C@H](CC(C)C)C(=O)N[C@@H](Cc1c[nH]c2ccccc12)C(=O)NCCO` [compound 8061] (For-VGA[dL]A[dL]V[dD](NHMe)W[dL]W[dL]W[dL]W-NHCH2CH2OH), for which the antibacterial activity result in data set [1] is “-”. Besides, in data set [2], the “H+/Na+ transport activity normalized against the value of 1 (1.00)” value (shortened to “H+/Na+ transport activity normalized”) was 1.05. In data set [3], this molecule had a cell viability/% of 100.0%.
The corresponding values for `CC(C)C[C@@H](NC(=O)[C@H](C)NC(=O)[C@H](NC(=O)[C@H](C)NC(=O)CNC(=O)[C@@H](NC=O)C(C)C)C(C)C)C(=O)N[C@H](C(=O)N[C@@H](C(=O)N[C@@H](Cc1c[nH]c2ccccc12)C(=O)N[C@@H](C(=O)N[C@@H](Cc1c[nH]c2ccccc12)C(=O)N[C@@H](C(=O)N[C@@H](Cc1c[nH]c2ccccc12)C(=O)N[C@@H](C(=O)N[C@@H](Cc1c[nH]c2ccccc12)C(=O)NCCO)C(C)C)C(C)C)C(C)C)C(C)C)C(C)C` [compound 8909] (For-VGA[dV]A[dL]V[dV]W[dV]W[dV]W[dV]W-NHCH2CH2OH) are “+”, 1.04 and 85.9%.
With `CC(C)C[C@@H](NC(=O)[C@H](C)NC(=O)CNC(=O)[C@@H](NC=O)C(C)C)C(=O)N[C@@H](C)C(=O)N[C@@H](C(=O)N[C@H](C(=O)N[C@H](CC(C)C)C(=O)N[C@@H](Cc1c[nH]c2ccccc12)C(=O)N[C@@H](C(=O)N[C@@H](Cc1c[nH]c2ccccc12)C(=O)N[C@H](CC(C)C)C(=O)N[C@@H](Cc1c[nH]c2ccccc12)C(=O)N[C@@H](C(=O)N[C@@H](Cc1c[nH]c2ccccc12)C(=O)NCCO)[C@H](C)O)C(C)C)C(C)C)C(C)C` [compound 5058] (For-VGA[dL]A[dV]V[dL]W[dV]W[dL]W[dT]W-NHCH2CH2OH), the antibacterial activity result in data set [1] is on record as “-”. The “H+/Na+ transport activity normalized” value in data set [2] is 1.02. The cell viability/% in data set [3] turned out to be 100.0%.
In the same order, the values of `CC(C)C[C@@H](NC(=O)[C@H](C)NC(=O)CNC(=O)[C@@H](NC=O)C(C)C)C(=O)N[C@@H](C)C(=O)N[C@H](CC(C)C)C(=O)N[C@H](C(=O)N[C@H](CC(C)C)C(=O)N[C@@H](Cc1c[nH]c2ccccc12)C(=O)N[C@H](CC(C)C)C(=O)N[C@@H](Cc1c[nH]c2ccccc12)C(=O)N[C@@H](C(=O)N[C@@H](Cc1c[nH]c2ccccc12)C(=O)N[C@@H](C(=O)N[C@@H](Cc1c[nH]c2ccccc12)C(=O)NCCO)C(C)C)C(C)C)C(C)C` [compound 4313] (For-VGA[dL]A[dL]V[dL]W[dL]W[dV]W[dV]W-NHCH2CH2OH) are “+”, 1.21 and 3.2%.
The corresponding values for `CC(C)C[C@@H](NC(=O)[C@H](C)NC(=O)[C@H](NC(=O)[C@H](C)NC(=O)CNC(=O)[C@@H](NC=O)C(C)C)[C@H](C)O)C(=O)N[C@H](C(=O)N[C@H](CC(C)C)C(=O)N[C@@H](Cc1c[nH]c2ccccc12)C(=O)N[C@@H](C(=O)N[C@@H](Cc1c[nH]c2ccccc12)C(=O)N[C@H](CC(C)C)C(=O)N[C@@H](Cc1c[nH]c2ccccc12)C(=O)N[C@@H](C(=O)N[C@@H](Cc1c[nH]c2ccccc12)C(=O)NCCO)C(C)C)C(C)C)C(C)C` [compound 6797] (For-VGA[dT]A[dL]V[dL]W[dV]W[dL]W[dV]W-NHCH2CH2OH) are “-”, 1.02 and 100.0%.
Take `CC(C)C[C@@H](NC(=O)[C@H](C)NC(=O)[C@H](NC(=O)[C@H](C)NC(=O)CNC(=O)[C@@H](NC=O)C(C)C)[C@H](C)O)C(=O)N[C@H](C(=O)N[C@H](CC(C)C)C(=O)N[C@@H](Cc1c[nH]c2ccccc12)C(=O)N[C@@H](C(=O)N[C@@H](Cc1c[nH]c2ccccc12)C(=O)N[C@H](CC(C)C)C(=O)N[C@@H](Cc1c[nH]c2ccccc12)C(=O)N[C@H](CC(C)C)C(=O)N[C@@H](Cc1c[nH]c2ccccc12)C(=O)NCCO)C(C)C)C(C)C` [compound 11561] (For-VGA[dT]A[dL]V[dL]W[dV]W[dL]W[dL]W-NHCH2CH2OH): the antibacterial activity entry in data set [1] was “-”. Also, in data set [2], the “H+/Na+ transport activity normalized” value is on record as 1.01. Also, the cell viability/% in data set [3] turned out to be 100.0%.
In the same order, the values of `CC(C)C[C@@H](NC(=O)[C@H](C)NC(=O)[C@H](NC(=O)[C@H](C)NC(=O)CNC(=O)[C@@H](NC=O)C(C)C)[C@H](C)O)C(=O)N[C@H](C(=O)N[C@@H](C(=O)N[C@@H](Cc1c[nH]c2ccccc12)C(=O)N[C@@H](C(=O)N[C@@H](Cc1c[nH]c2ccccc12)C(=O)N[C@H](CC(C)C)C(=O)N[C@@H](Cc1c[nH]c2ccccc12)C(=O)N[C@@H](C(=O)N[C@@H](Cc1c[nH]c2ccccc12)C(=O)NCCO)C(C)C)C(C)C)C(C)C)C(C)C` [compound 6857] (For-VGA[dT]A[dL]V[dV]W[dV]W[dL]W[dV]W-NHCH2CH2OH) are “-”, 1.16 and 100.0%.
The corresponding values for `CC(C)C[C@@H](NC(=O)[C@H](C)NC(=O)CNC(=O)[C@@H](NC=O)C(C)C)C(=O)N[C@@H](C)C(=O)N[C@H](CC(C)C)C(=O)N[C@H](C(=O)N[C@@H](C(=O)N[C@@H](Cc1c[nH]c2ccccc12)C(=O)N[C@@H](C(=O)N[C@@H](Cc1c[nH]c2ccccc12)C(=O)N[C@H](CC(C)C)C(=O)N[C@@H](Cc1c[nH]c2ccccc12)C(=O)N[C@@H](C(=O)N[C@@H](Cc1c[nH]c2ccccc12)C(=O)NCCO)C(C)C)C(C)C)C(C)C)C(C)C` [compound 10456] (For-VGA[dL]A[dL]V[dV]W[dV]W[dL]W[dV]W-NHCH2CH2OH) are “+”, 1.13 and 11.8%.
Take `CC(C)C[C@@H](NC(=O)[C@H](C)NC(=O)CNC(=O)[C@@H](NC=O)C(C)C)C(=O)N[C@@H](C)C(=O)N[C@H](CC(C)C)C(=O)N[C@H](C(=O)N[C@H](CC(C)C)C(=O)N[C@@H](Cc1c[nH]c2ccccc12)C(=O)N[C@@H](C(=O)N[C@@H](Cc1c[nH]c2ccccc12)C(=O)N[C@H](CC(C)C)C(=O)N[C@@H](Cc1c[nH]c2ccccc12)C(=O)N[C@@H](C(=O)N[C@@H](Cc1c[nH]c2ccccc12)C(=O)NCCO)C(C)C)[C@H](C)O)C(C)C` [compound 7480] (For-VGA[dL]A[dL]V[dL]W[dT]W[dL]W[dV]W-NHCH2CH2OH): in data set [1], the antibacterial activity entry is on record as “-”. Further, in data set [2], the “H+/Na+ transport activity normalized” value is reported as 1.01. In addition, the cell viability/% in data set [3] amounted to 100.0%.
The corresponding values for `CC(C)C[C@@H](NC(=O)[C@H](Cc1c[nH]c2ccccc12)NC(=O)[C@H](NC(=O)[C@H](Cc1c[nH]c2ccccc12)NC(=O)[C@H](NC(=O)[C@H](Cc1c[nH]c2ccccc12)NC(=O)[C@H](NC(=O)[C@@H](NC(=O)[C@H](NC(=O)[C@H](C)NC(=O)[C@H](NC(=O)[C@H](C)NC(=O)CNC(=O)[C@@H](NC=O)C(C)C)C(C)C)[C@H](C)O)C(C)C)C(C)C)C(C)C)C(C)C)C(=O)N[C@@H](Cc1c[nH]c2ccccc12)C(=O)NCCO` [compound 5164] (For-VGA[dV]A[dT]V[dV]W[dV]W[dV]W[dL]W-NHCH2CH2OH) are “-”, 1.19 and 100.0%.
The corresponding values for `CC(C)C[C@@H](NC(=O)[C@H](C)NC(=O)CNC(=O)[C@@H](NC=O)C(C)C)C(=O)N[C@@H](C)C(=O)N[C@H](CC(C)C)C(=O)N[C@H](C(=O)N[C@H](CC(C)C)C(=O)N[C@@H](Cc1c[nH]c2ccccc12)C(=O)N[C@@H](C(=O)N[C@@H](Cc1c[nH]c2ccccc12)C(=O)N[C@H](CC(C)C)C(=O)N[C@@H](Cc1c[nH]c2ccccc12)C(=O)N[C@@H](C(=O)N[C@@H](Cc1c[nH]c2ccccc12)C(=O)NCCO)[C@H](C)O)C(C)C)C(C)C` [compound 5508] (For-VGA[dL]A[dL]V[dL]W[dV]W[dL]W[dT]W-NHCH2CH2OH) are “-”, 1.19 and 100.0%.
The corresponding values for `CC(C)C[C@@H](NC(=O)[C@H](C)NC(=O)[C@H](NC(=O)[C@H](C)NC(=O)CNC(=O)[C@@H](NC=O)C(C)C)[C@H](C)O)C(=O)N[C@H](C(=O)N[C@H](CC(C)C)C(=O)N[C@@H](Cc1c[nH]c2ccccc12)C(=O)N[C@@H](C(=O)N[C@@H](Cc1c[nH]c2ccccc12)C(=O)N[C@H](CC(C)C)C(=O)N[C@@H](Cc1c[nH]c2ccccc12)C(=O)N[C@H](CC(C)C)C(=O)N[C@@H](Cc1c[nH]c2ccccc12)C(=O)NCCO)C(C)C)C(C)C` [compound 7890] (For-VGA[dT]A[dL]V[dL]W[dV]W[dL]W[dL]W-NHCH2CH2OH) are “-”, 1.11 and 100.0%.

Source of the values: paper PMC7531004, “Discovery of gramicidin A analogues with altered activities by multidimensional screening of a one-bead-one-compound library” (Nature Communications, 2020).
